{"source": "patent US20170368018A1", "about": "“USE OF ELLAGIC ACID DIHYDRATE IN PHARMACEUTICAL FORMULATIONS TO REGULATE BLOOD GLUCOSE LEVELS” (HALO LIFE SCIENCE, LLC, priority 2014, published 2017)", "key": {"glucose oxidase reaction": {"target": "glucose oxidase reaction (Aspergillus niger, UniProt P13006)", "sequence (P13006 17-605)": "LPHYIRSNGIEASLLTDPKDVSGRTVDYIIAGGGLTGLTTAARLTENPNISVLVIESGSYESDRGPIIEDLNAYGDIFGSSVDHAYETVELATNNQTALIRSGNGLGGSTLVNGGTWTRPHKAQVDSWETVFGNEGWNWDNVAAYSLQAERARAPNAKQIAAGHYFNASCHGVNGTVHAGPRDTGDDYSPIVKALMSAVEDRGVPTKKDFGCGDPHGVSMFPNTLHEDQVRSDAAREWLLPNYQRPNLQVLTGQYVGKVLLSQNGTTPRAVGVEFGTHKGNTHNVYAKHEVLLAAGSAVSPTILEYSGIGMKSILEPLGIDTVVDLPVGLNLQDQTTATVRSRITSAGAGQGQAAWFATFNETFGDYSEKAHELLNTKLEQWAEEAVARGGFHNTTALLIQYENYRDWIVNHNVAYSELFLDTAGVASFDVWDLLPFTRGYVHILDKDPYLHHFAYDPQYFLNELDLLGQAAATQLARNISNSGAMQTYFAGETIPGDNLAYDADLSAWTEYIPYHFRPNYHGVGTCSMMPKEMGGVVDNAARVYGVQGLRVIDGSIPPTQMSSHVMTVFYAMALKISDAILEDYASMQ", "test": "Direct interaction with glucose, glucose oxidase based glucometer on serum", "format": "biochemical", "conditions": "incubated with serum at room temperature for five minutes or overnight at 37° C.", "experimental": "Ellagic acid dihydrate was analyzed for direct interaction with glucose. A glucose oxidase based glucometer was used to measure serum glucose. Ellagic acid dihydrate was incubated with serum at room temperature for five minutes or overnight at 37° C. Upon testing the mixture, no inhibition of the glucose oxidase reaction was observed. Ellagic acid dihydrate is not believed to directly interact with glucose."}, "MEF cells [1]": {"test_system": "MEF cells", "test": "Glucose uptake, 2-NBDG labeling, flow cytometry, MEFs", "format": "cell-based, mouse", "experimental": "Cellular assays were performed using mouse myoblast C2C12 cells and MEF cells. […] Increased glucose uptake was indicated as increasing signal of 2-NBDG ([…]) in cells. Glucose uptake assays were carried out in a final incubation volume of 50 μl consisting of, 2-NBDG), (100 μM) in 1× Phosphate Buffered Saline w/Ca+, Mg+ (PBS++). The same buffer was used for washing cells. Insulin was used as a positive control. All testing compounds were prepared in […] and diluted 1:100 for a final concentration of 0.1% DMSO (vehicle). Cells were culture to 70-90% confluence and then washed twice with PBS++. Cells were incubated for 30 minutes at 37° C. in PBS++. Nuclear stain, HCS CellMask stain (blue, Invitrogen), and/or testing compounds (ellagic acid dihydrate, insulin, or vehicle) were added. Cells were incubated for 30 min at 37° C. Cells were washed twice with PBS++and incubated with 2-NBDG for 10 minutes. Cells were washed thrice with PBS++and then imaged in PBS++. Alternatively, the final PBS wash was removed and cells were incubated with Accutase (Invitrogen) for 10 min at 37° C., neutralized with 10% FBS in 1× PBS, and analyzed by flow cytometry. An additional experiment was performed to measure glucose uptake in C2C12 cells exposed to metformin, insulin and ellagic acid dihydrate 2 (batch 2). FIG. 5C. Glucose uptake in ellagic acid dihydrate treated cell culture was measured and compared to glucose uptake under insulin or ellagic acid treatment. […] Flow cytometry results were run in triplicate with 1000 cells per batch."}, "MEF cells [2]": {"test_system": "MEF cells", "test": "Glucose uptake, 2-NBDG labeling, high-content imaging (Operetta), MEFs", "format": "cell-based, mouse", "experimental": "Increased glucose uptake was indicated as increasing signal of 2-NBDG ([…]) in cells. Glucose uptake assays were carried out in a final incubation volume of 50 μl consisting of, 2-NBDG), (100 μM) in 1× Phosphate Buffered Saline w/Ca+, Mg+ (PBS++). The same buffer was used for washing cells. Insulin was used as a positive control. All testing compounds were prepared in 10% DMSO and diluted 1:100 for a final concentration of 0.1% DMSO (vehicle). Cells were culture to 70-90% confluence and then washed twice with PBS++. Cells were incubated for 30 minutes at 37° C. in PBS++. Nuclear stain, HCS CellMask stain (blue, Invitrogen), and/or testing compounds (ellagic acid dihydrate, insulin, or vehicle) were added. Cells were incubated for 30 min at 37° C. Cells were washed twice with PBS++and incubated with 2-NBDG for 10 minutes. Cells were washed thrice with PBS++and then imaged in PBS++. Alternatively, the final PBS wash was removed and cells were incubated with Accutase (Invitrogen) for 10 min at 37° C., neutralized with 10% FBS in 1× PBS, and analyzed by flow cytometry. An additional experiment was performed to measure glucose uptake in C2C12 cells exposed to metformin, insulin and ellagic acid dihydrate 2 (batch 2). FIG. 5C. Glucose uptake in ellagic acid dihydrate treated cell culture was measured and compared to glucose uptake under insulin or ellagic acid treatment. […] Flow cytometry results were run in triplicate with 1000 cells per batch."}, "[3]": {"test_system": "mouse myoblast C2C12 cells", "test": "Glucose uptake, 2-NBDG labeling, flow cytometry, C2C12", "format": "cell-based", "experimental": "Cellular assays were performed using mouse myoblast C2C12 cells and MEF cells. […] Increased glucose uptake was indicated as increasing signal of 2-NBDG ([…]) in cells. Glucose uptake assays were carried out in a final incubation volume of 50 μl consisting of, 2-NBDG), (100 μM) in 1× Phosphate Buffered Saline w/Ca+, Mg+ (PBS++). The same buffer was used for washing cells. Insulin was used as a positive control. All testing compounds were prepared in 10% DMSO and diluted 1:100 for a final concentration of 0.1% DMSO (vehicle). Cells were culture to 70-90% confluence and then washed twice with PBS++. Cells were incubated for 30 minutes at 37° C. in PBS++. Nuclear stain, HCS CellMask stain (blue, Invitrogen), and/or testing compounds (ellagic acid dihydrate, insulin, or vehicle) were added. Cells were incubated for 30 min at 37° C. Cells were washed twice with PBS++and incubated with 2-NBDG for 10 minutes. Cells were washed thrice with PBS++and then imaged in PBS++. Alternatively, the final PBS wash was removed and cells were incubated with Accutase (Invitrogen) for 10 min at 37° C., neutralized with 10% FBS in 1× PBS, and analyzed by flow cytometry. An additional experiment was performed to measure glucose uptake in C2C12 cells exposed to metformin, insulin and ellagic acid dihydrate 2 (batch 2). FIG. 5C."}, "[4]": {"test_system": "mouse embryonic fibroblasts (MEFs)", "test": "Cytotoxicity: cell proliferation by automated cell counting (flow cytometry)", "format": "cell-based", "conditions": "48 hr exposure, 4 μM-0.04 nM, changes not statistically significant (P>0.05)", "experimental": "The cytotoxicity of ellagic acid dihydrate in in vitro cell culture was evaluated. Cellular assays were performed using mouse embryonic fibroblasts (MEFs). Cells were unexposed (No Treatment) or exposed to varying concentrations of ellagic acid dihydrate (4 μM-0.04 nM) or vehicle (0.1% DMSO) for 48 hrs. All assays were run in triplicate.\nCell proliferation rates were determined using automated cell counting of cells after 48 hr exposure to ellagic acid dihydrate in complete medium (DMEM w/10% FBS). Cell were then washed thrice with 1× PBS and incubated with Accutase (Invitrogen) for 10 min at 37° C., neutralized with 10% FBS in 1× PBS, and analyzed by flow cytometry. Cell concentrations were determined by cell counting (500-1000) on a flow cytometer (Accuri C6, BD Biosciences). The concentration of cells reflects the impact of ellagic acid dihydrate on the cell population numbers (cell death and cell proliferation)."}}, "note": "Entries after “also recorded” stand apart in the source; their conditions may differ."}
{"smiles": "O.O.O=c1oc2c(O)c(O)cc3c(=O)oc4c(O)c(O)cc1c4c23", "note": "[ellagic acid dihydrate]", "values": [{"measurement": "inhibition of the glucose oxidase reaction", "setting": "glucose oxidase reaction", "value": "no inhibition"}, {"measurement": "increased glucose uptake relative to vehicle treated cells", "setting": "MEF cells [1]; 400 nM exposure, fibroblasts, FIG. 4B", "value": 47, "unit": "%"}, {"measurement": "dose effect for increasing glucose uptake", "setting": "MEF cells [1]; MEFs, flow cytometry, 4 μM-0.04 nM", "value": "showed a dose effect"}, {"measurement": "increase in glucose uptake compared with ellagic acid or insulin treatment", "setting": "MEF cells [1]; MEFs, flow cytometry, Example 5, FIG. 6", "value": "significantly greater increase in glucose uptake"}, {"measurement": "glucose uptake (2-NBDG signal) relative to vehicle", "setting": "MEF cells [1]; MEFs, flow cytometry, FIG. 4A", "value": "significantly greater than vehicle treated"}, {"measurement": "glucose uptake relative to insulin", "setting": "MEF cells [1]; fibroblasts, at most concentrations tested, significant at 4 nM-4 μM, dihydrate", "value": "significantly more glucose uptake relative to insulin; also recorded: exceeded the uptake induced by insulin"}, {"measurement": "glucose uptake per unit dose", "setting": "MEF cells [1]; in vitro conditions, summary statement", "value": "increase in glucose uptake per unit dose"}, {"measurement": "dose effect for increasing glucose uptake", "setting": "MEF cells [2]", "value": "showed a dose effect"}, {"measurement": "glucose uptake (signal of 2-NBDG) in comparison to vehicle", "setting": "MEF cells [2]", "value": "showed an increase in glucose uptake"}, {"measurement": "glucose uptake (2-NBDG signal) relative to vehicle treated or Insulin treated cells", "setting": "MEF cells [2]; data not shown", "value": "significantly greater"}, {"measurement": "increase in glucose uptake in myoblasts relative to fibroblasts", "setting": "[3]; C2C12 (FIGS. 5A, 5B) versus MEFs (FIGS. 4A, 4B)", "value": "~4", "unit": "×"}, {"measurement": "increase in glucose uptake compared with metformin", "setting": "[3]; C2C12, 4000 nm, FIG. 5C (batch 2)", "value": "greater increase in glucose uptake than metformin"}, {"measurement": "dose effect for increasing glucose uptake", "setting": "[3]; C2C12, flow cytometry, 4 μM-0.04 nM", "value": "showed a dose effect"}, {"measurement": "glucose uptake (2-NBDG signal) relative to vehicle", "setting": "[3]; C2C12, flow cytometry, FIG. 5A", "value": "significantly greater than vehicle treated"}, {"measurement": "glucose uptake relative to insulin", "setting": "[3]; myoblasts, at most concentrations tested, significant at 4 nM-4 μM, dihydrate", "value": "significantly more glucose uptake relative to insulin; also recorded: exceeded the uptake induced by insulin"}, {"measurement": "Cell proliferation", "setting": "[4]", "value": "trend toward increasing cell proliferation"}]}
